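All cell lines were grown in 96-well plates and treated with compound for 48 hours. The concentration for 50% growth inhibition is given as GI50. TGI: concentration producing complete growth inhibition.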
How the values were obtained:
Experiment in all cases: growth of human tumour cells (NCI), 48 h
[1] = tested on: 786-0 renal
[2] = tested on: A549 NSCLC
[3] = tested on: ACHN renal
[4] = tested on: HCC-2998 colon
[5] = tested on: HCT-116 colon
[6] = tested on: HCT-15 colon
[7] = tested on: IGROV1 ovarian
[8] = tested on: KM12 colon
[9] = tested on: MCF7 breast
[10] = tested on: MDA-N
[11] = tested on: NCI-H460 lung
[12] = tested on: NCI/ADR-RES ovarian
[13] = tested on: OVCAR-3 ovarian
[14] = tested on: SK-OV-3 ovarian
[15] = tested on: SN12C renal
[16] = tested on: SNB-19 CNS
[17] = tested on: SW-620 colon
[18] = tested on: T-47D breast
[19] = tested on: UO-31 renal

| SMILES | TGI [1] | TGI [2] | TGI [3] | TGI [4] | TGI [5] | TGI [6] | TGI [7] | TGI [8] | TGI [9] | TGI [10] | TGI [11] | TGI [12] | TGI [13] | TGI [14] | TGI [15] | TGI [16] | TGI [17] | TGI [18] | TGI [19] | GI50 [8] |
| --- | --- | --- | --- | --- | --- | --- | --- | --- | --- | --- | --- | --- | --- | --- | --- | --- | --- | --- | --- | --- |
| CCOC(=O)/C(=C\NCC(OCC)OCC)c1nc2ccccc2[nH]1 | > 100 µM | > 100 µM | > 100 µM | 51.3 µM | > 100 µM | 51.8 µM | > 100 µM | > 100 µM | > 100 µM | 85.2 µM | 71.5 µM | 24.4 µM | 61.9 µM | > 100 µM | > 100 µM | > 100 µM | > 100 µM | 94.5 µM | > 100 µM |  |
| NCC#CCNCCCN1CC1 | > 100 µM | > 100 µM | > 100 µM | > 100 µM | > 100 µM | > 100 µM | > 100 µM | > 100 µM | > 100 µM | > 100 µM | > 100 µM | > 100 µM | > 100 µM | > 100 µM | > 100 µM | > 100 µM | > 100 µM | > 100 µM |  |  |
| CCOC(=O)n1[nH]c(=O)n(-c2ccccc2)c1=O | > 100 µM | > 100 µM | > 100 µM | > 100 µM | > 100 µM | > 100 µM | > 100 µM | > 100 µM | > 100 µM | > 100 µM | > 100 µM | > 100 µM | > 100 µM | > 100 µM | > 100 µM | > 100 µM | > 100 µM | > 100 µM | > 100 µM |  |
| Cn1c(=O)[nH]c2[nH]c3ccccc3c2c1=O | > 100 µM | > 100 µM | > 100 µM | > 100 µM | > 100 µM | > 100 µM | > 100 µM | > 100 µM | > 100 µM | > 100 µM |  | > 100 µM | > 100 µM | > 100 µM | > 100 µM | > 100 µM | > 100 µM | > 100 µM | > 100 µM |  |
| COc1ccc(N=C2C(=O)C3=C(OC(C)(C)CC3)c3ccccc32)cc1 | 1.99 µM | 1.94 µM | 1.57 µM | 3.96 µM | 1.48 µM | 10.8 µM | 11.2 µM | 1.97 µM | 1.87 µM | 1.26 µM | 5.72 µM | 16.7 µM | 1.5 µM | 4.4 µM | 1.63 µM | 2.36 µM | 1.56 µM | 2.2 µM | 1.69 µM |  |
| C=C1C[C@@H](O)[C@@H](Br)C(C)(C)[C@]12CCC(C)(Cl)C(Br)C2 (stereo not given in full) | > 78.2 µM | > 86 µM | > 87.5 µM | 35.3 µM | > 100 µM | > 100 µM | 46.4 µM | 3.8 µM | > 79.3 µM | > 59.8 µM | > 84.5 µM | 98 µM | 37.4 µM | > 100 µM | 36 µM | > 31.6 µM | > 100 µM | > 100 µM | > 100 µM | 793 nM |
| CC(=O)OCC1OC(n2c(C)c(N=Nc3ccccc3)c(C)c(C#N)c2=S)C(OC(C)=O)C(OC(C)=O)C1OC(C)=O (stereo not given) | 22.7 µM | > 100 µM | > 100 µM | > 100 µM | 60 µM |  | > 100 µM | > 100 µM | > 100 µM | > 100 µM | > 100 µM | > 100 µM | > 100 µM | > 100 µM | > 100 µM | > 100 µM | > 100 µM | > 100 µM | > 100 µM |  |
| N#Cc1c(-c2ccccc2)c(N=Nc2ccc(F)cc2)c(=O)n2c1[nH]c1ccccc12 | 14.3 µM | 19.3 µM | > 64.6 µM | > 100 µM | 14.2 µM | > 100 µM | 35.7 µM | 65 µM | > 100 µM | 52.9 µM | 19.9 µM | 20.6 µM | 8.57 µM | 31.5 µM | 10.2 µM | 33.5 µM | > 100 µM | 40.8 µM | 20.6 µM |  |
| CC(C)OCC(O)COc1ccc2ccc(=O)oc2c1 (stereo not given) | > 100 µM | > 100 µM | > 100 µM | > 100 µM | > 100 µM | > 100 µM | > 100 µM | > 100 µM | > 100 µM | > 100 µM | > 100 µM | > 100 µM | > 100 µM | > 100 µM | > 100 µM | > 100 µM | > 100 µM | > 100 µM | > 100 µM |  |
| CN(c1ccccc1)S(=O)(=O)c1ccccc1[N+](=O)[O-] | > 100 µM | > 100 µM | > 100 µM | > 100 µM | > 100 µM | > 100 µM | > 100 µM | > 100 µM | > 100 µM | > 100 µM | > 100 µM | > 100 µM | > 100 µM | > 100 µM | > 100 µM | > 100 µM | > 100 µM | > 100 µM | > 100 µM |  |
| CCCCOC(=O)C1CN2C=CC=NC2=NC1(C(F)(F)F)C(F)(F)F (stereo not given) | > 100 µM | > 100 µM | > 100 µM | > 100 µM | > 100 µM | > 100 µM | > 100 µM | > 100 µM | > 100 µM | > 100 µM | > 100 µM | > 100 µM | > 100 µM | > 100 µM | > 100 µM | > 100 µM | > 100 µM | > 100 µM | > 100 µM |  |
| COc1ccc(CNc2nc3cc(C(F)(F)F)ccc3nc2C(=O)O)cc1OC | > 100 µM | > 100 µM | > 100 µM | 95.8 µM | 75.4 µM | > 100 µM | 66 µM | > 100 µM | 95 µM | > 100 µM | > 100 µM | > 100 µM | 58.1 µM | > 100 µM | 77.9 µM | > 100 µM | > 100 µM | > 100 µM | > 100 µM |  |
| O=C1CCCC2=C(N1)C(=O)C=CC2=O | 57.5 µM | > 78.5 µM | 55.1 µM | > 100 µM | 49.1 µM | 62.6 µM | 57.2 µM | 36.7 µM | 38.4 µM | 30.9 µM | 63.8 µM | > 70.5 µM | 64.4 µM | > 100 µM | > 69.2 µM | 61 µM | 37.9 µM | 52.7 µM | 57.9 µM |  |

Reference: PubChem BioAssay (NCI)
